Here are results for ten compounds from patent US9920295B2, “Bioreactor for isolation of rare cells and methods of use” (The Trustees of the University of Pennsylvania, priority 2012, dated 2018).

Where two headings read alike, the source gives them in different places.

One series deals with NMM-IIA pS1943. In words: pS1943 of NMM-IIA by phospho-specific flow cytometry. It counts as cell-based, human. The note with it: under cytokine stimulation (SCF and Tpo). As to the method:
(§1) Cells were fixed with 4% paraformaldehyde in PBS for 10 min, washed with PBS and resuspended in 0.1% saponin in HBSS (staining medium). The samples were then stained with antibodies against cytoplasmic antigens, including NMM-IIA (Sigma), NMM-IIB, phospho-NMM-IIA and caspase-3 (all from Cell Signaling Technology) for 30 min at room temperature. In some cases, cells were concurrently stained with PE anti-CD34 or anti-human CD38 for subpopulation analysis. Cells were then washed and stained with anti-rabbit or mouse secondary antibodies conjugated with Alexa 647 (Invitrogen) for 30 min, followed by analysis on FACSCalibur.
A general note: A flow cytometer gives signals particle by particle.

Series [1] has as its system BM CD34+-derived cells (CD41+ MK). In words: Ploidy analysis of CD34+-derived cells treated with contractility inhibitors (flow cytometry). It counts as cell-based, human. The note with it: for EC50: read-out: MK polyploid cell number EC50. As to the method:
(§2) Fresh purified bone marrow (BM)-derived humanCD34^+ cells were obtained from either the Penn Xenograft Core Facility or AllCells. Cells from at least 10 different donors were used in this study. Purity of the samples (>98%) was confirmed by flow cytometry with monoclonal antibody against human CD34 conjugated to phycoerythrin (PE). All experiments were performed in hematopoietic stem cell (HSC) expansion media (StemLine-II; Sigma) supplemented with 1× antibiotics, and the following human recombinant cytokines SCF (100 ng/mL) and Tpo (100 ng/mL). In some occasions, the media was also supplemented by G-CSF (100 ng/mL). All cytokines were purchased from R&D Systems. After cells were cultured for 4 days, they were treated with different doses of cellular contractility inhibitors, including (±)-blebbistatin (EMDBiosciences), reversine, ML-7, and Y-27632 (Sigma) for indicated durations of up to 3 days. Unfortunately, longer exposure to drug proves toxic even to polyploidy cells under the present culture conditions. Cells were then resuspended in PBS/2% FBS medium and subjected to ploidy analysis: cells were stained with CD41-FITC (BD Biosciences) at room temperature for 30 min, followed by Hoechst 33342 at 37° C. for 30 min. Then cells were stained with Annexin-V-PE (BD Biosciences) in the Annexin-V staining medium, followed by addition of 7-AAD. Stained cells were subjected to flow cytometric analysis (LSR-II; BD Biosciences): only viable cells (7-AAD^− and Hoechst 33342^+) were analyzed for ploidy. Cells with the DNA content of 8 N or higher were considered polyploid. To quantify absolute number of polyploid cells, viable cell number was counted before flow cytometry by Trypan blue exclusion, and this number was multiplied by percentages of each DNA compartment and subpopulations. Each multiplied number was then normalized by initial cell input number before drug treatment in culture.

Series [2] concerns CD34+-derived cells (HSC, MPP, CPP). The series can be described thus: AHR antagonist dose-response on HSC/P subpopulation number. The series is classed as cell-based, human. As for the experimental part:
Freshly purified bone marrow-derived human CD34^+ cells were obtained from either the Penn Xenograft Core Facility or AllCells (Emeryville, Calif.). Cells from at least 20 different donors were used in this study. Purity of the samples (>98%) was confirmed by flow cytometry with monoclonal antibody against human CD34. All experiments were performed in HSC expansion media (StemLine, Sigma) supplemented with 1× antibiotics, 20% BIT 9500 Serum Substitute (StemCell Technologies), 2 mM […] (Gibco) and the following human recombinant cytokines: SCF (100 ng/ml) and Tpo (100 ng/ml). In some occasions, the media was also supplemented by G-CSF (100 ng/ml), epidermal growth factor (EGF, 100 ng/ml), transforming growth factor beta 1 (TGF-beta1, 100 ng/ml), erythropoietin (EPO, 1 U/ml) and interleukin-3 (IL-3, 10 ng/ml). All cytokines were purchased from R&D Systems. After cells were cultured for 4 days, they were treated with different doses of cellular contractility inhibitors, including (±)-Blebbistatin (Bleb) (EMD Biosciences) and/or CH-223191 (Sigma) for indicated durations of up to 3 days. Cells were cultured at 37° C. in 5% CO2.
Surface marker analysis for HSC/Ps was done on either a LSR II flow cytometer or FACSCalibur (Becton Dickinson). […] Cells isolated from the bone marrow stained for 1 hr with APC anti-mouse CD47 (miap301, AbD Serotec), FITC anti-human CD47 (BD Biosciences), and PE anti-human CD11b, PE anti-human CD19 (both from BD Biosciences), or PE anti-human Glycophorin A (Invitrogen). Plts and RBCs were analyzed by staining with PE anti-mouse CD41 (eBioscience) and FITC anti-human CD41 (eBioscience) for 20 min, followed by analysis on FACSCalibur on log forward and side scatter scales.

Another series concerns CD34+ cells. The settings on record: data from Boitano et al. (2010), cited from earlier work; for EC50: fitted, read-out: CD34+ cell number EC50.
A further series relates to CD34+-derived cells. The series can be described thus: Apoptosis by cleaved caspase-3 intracellular flow cytometry and Annexin-V. It counts as cell-based, human. The note with it: G-CSF 100 ng/ml; CH-223191 500 nM (4n fraction). As to the method: as §1
The target in another series is T1, αIIbβ3 (Homo sapiens, UniProt P05106+P08514).
T1 construct: endogenous in cells; host or cells: platelet-like fragments from megakaryocytes cultured from human bone-marrow CD34+ cells
T1 sequence (P08514 32-887 limits assumed): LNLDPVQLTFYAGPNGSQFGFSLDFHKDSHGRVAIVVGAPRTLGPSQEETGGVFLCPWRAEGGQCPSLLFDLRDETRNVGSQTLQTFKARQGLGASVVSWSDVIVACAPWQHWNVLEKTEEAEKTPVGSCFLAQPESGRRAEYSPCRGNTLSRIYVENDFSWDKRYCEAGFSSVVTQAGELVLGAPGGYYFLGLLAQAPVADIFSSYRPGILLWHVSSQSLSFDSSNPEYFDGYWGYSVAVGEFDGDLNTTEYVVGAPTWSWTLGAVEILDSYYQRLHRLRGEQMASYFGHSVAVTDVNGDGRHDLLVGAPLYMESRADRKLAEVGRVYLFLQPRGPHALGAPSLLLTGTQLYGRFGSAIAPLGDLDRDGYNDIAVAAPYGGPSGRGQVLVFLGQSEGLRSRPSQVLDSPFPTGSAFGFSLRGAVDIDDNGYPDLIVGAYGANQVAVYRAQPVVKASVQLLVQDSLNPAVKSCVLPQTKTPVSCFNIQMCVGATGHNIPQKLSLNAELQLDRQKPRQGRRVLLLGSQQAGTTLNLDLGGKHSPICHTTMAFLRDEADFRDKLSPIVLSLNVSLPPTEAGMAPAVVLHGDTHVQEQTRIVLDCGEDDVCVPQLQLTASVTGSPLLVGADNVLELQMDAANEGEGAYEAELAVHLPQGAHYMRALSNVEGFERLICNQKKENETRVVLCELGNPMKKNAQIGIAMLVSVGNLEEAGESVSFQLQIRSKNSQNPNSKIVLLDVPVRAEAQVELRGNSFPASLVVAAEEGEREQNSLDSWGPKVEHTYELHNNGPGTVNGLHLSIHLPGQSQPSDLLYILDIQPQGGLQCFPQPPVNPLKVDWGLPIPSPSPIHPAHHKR
T1 sequence (P08514 891-1039 partner limits assumed): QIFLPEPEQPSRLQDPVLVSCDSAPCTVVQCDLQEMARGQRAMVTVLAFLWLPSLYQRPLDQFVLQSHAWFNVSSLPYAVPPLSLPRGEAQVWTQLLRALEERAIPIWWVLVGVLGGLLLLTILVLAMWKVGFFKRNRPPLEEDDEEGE
T1 sequence (P05106 27-788): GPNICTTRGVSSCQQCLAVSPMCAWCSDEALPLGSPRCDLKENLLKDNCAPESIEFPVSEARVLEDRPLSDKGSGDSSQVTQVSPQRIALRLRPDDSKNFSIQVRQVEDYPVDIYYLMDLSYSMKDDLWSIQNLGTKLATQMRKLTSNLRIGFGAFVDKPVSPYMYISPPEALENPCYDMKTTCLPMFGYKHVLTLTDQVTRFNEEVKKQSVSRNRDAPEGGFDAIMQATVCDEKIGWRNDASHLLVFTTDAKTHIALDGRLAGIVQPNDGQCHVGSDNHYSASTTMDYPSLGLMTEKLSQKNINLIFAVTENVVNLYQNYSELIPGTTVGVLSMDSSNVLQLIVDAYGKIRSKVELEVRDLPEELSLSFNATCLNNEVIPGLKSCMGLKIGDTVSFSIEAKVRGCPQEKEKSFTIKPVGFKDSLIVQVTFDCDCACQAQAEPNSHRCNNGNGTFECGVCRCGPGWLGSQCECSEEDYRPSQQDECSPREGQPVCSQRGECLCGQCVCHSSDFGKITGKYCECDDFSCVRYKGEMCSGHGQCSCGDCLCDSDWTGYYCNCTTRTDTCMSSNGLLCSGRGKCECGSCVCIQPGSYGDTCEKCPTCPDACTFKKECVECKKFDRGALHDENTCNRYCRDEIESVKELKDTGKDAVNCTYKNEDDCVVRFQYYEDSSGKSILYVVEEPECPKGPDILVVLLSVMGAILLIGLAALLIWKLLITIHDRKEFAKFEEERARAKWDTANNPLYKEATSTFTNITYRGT
The series can be described thus: Platelet activation assay, PAC-1 binding. The series is classed as cell-based. The note with it: 10 μM, thrombin 1 U/mL. As to the method:
For platelet-activation assays, platelet-sided fraction isolated from either MK culture or NSG blood was resuspended in Tyrode's buffer supplemented with Mg^2+ and Ca^2+, and incubated with indicated agonists for 15 min at 37° C., followed by staining with FITC-conjugated anti-human P-selectin or PAC-1 antibody (BD Bioscience), APC-conjugated anti-human CD41, and in the case of xenograft samples, PE-conjugated anti-mouse CD41 for 15 min at room temperature, followed by fixation with 1.5% paraformaldehyde. Antibody-stained samples were then analyzed by flow cytometry. Platelet number was evaluated by mixing each sample with a defined number (˜10,000 beads per sample) of APC-conjugated beads (BD Bioscience). The number of platelets per sample was evaluated by: number of CD41^+ events/number of APC-bead events multiplied by total known number of APC-bead added per sample.

The next series relates to CD34+-derived MKs. The series can be described thus: Polyploid MK numbers on collagen-coated gels of different elasticity. It counts as cell-based, human. As for the experimental part:
as §2, with “Cells were then resuspended in PBS/2% FBS medium and subjected to ploidy analysis: cells were stained with CD41-FITC (BD Biosciences) at room temperature for 30 min, followed by Hoechst 33342 at 37° C. for 30 min. Then cells were stained with Annexin-V-PE (BD Biosciences) in the Annexin-V staining medium, followed by addition of 7-AAD.” left out, “Cells with the DNA content of 8 N or higher were considered polyploid.” left out, “Each multiplied number was then normalized by initial cell input number before drug treatment in culture.” left out

Where [3] appears, read: Homo sapiens, dose-response, n≥3 donors.

Turning to “TGF-beta 1: transforming growth factor beta 1, human recombinant cytokine”, the “effect on pS1943 level” value with NMM-IIA pS1943 is recorded as “inhibits the reduction of pS1943 level”.

Usually IC50 stands for the point on the concentration scale where inhibition reaches its midpoint. For `O=S(=O)(c1cccc2c(I)cccc12)N1CCCNCC1` [ML7, ML-7], the IC50 in series [1] (2 N, read-out: MK cell number in 2 N IC50) was 500 nM; in series [1] (4 N, read-out: MK cell number in 4 N IC50) it was 500 nM; in series [1] (dose-response, n≥3 donors, read-out: MK polyploid cell number IC50) it was 1040 nM.

One may read the EC50 as the concentration at which the effect is half-maximal. Regarding `Cc1ccccc1N=Nc1ccc(NC(=O)c2ccnn2C)c(C)c1` [CH-223191], the HSC/P ratio entry in series [2] (dual drug treatment with Bleb) was “almost doubled”. In addition, the EC50 in series [2] (untreated and Bleb, for both, read-out: CPP number EC50) was 750 nM; in series [2] (untreated and Bleb, for both, read-out: MPP number EC50), 114 nM; in series [2] (with 20 μM Bleb, 3 days, read-out: HSC number EC50) it was 211 nM; in series [2] (without Bleb, 3 days, read-out: HSC number EC50), 158 nM; with CD34+ cells it was 74 nM. Moreover, in the series with CD34+-derived cells, the “viability of untreated CD34+ and CD34− cells” value is on record as “improves the viability”.

On to `O=c1cc(-c2ccccc2)oc2c1ccc1ccccc12` [a-napthoflavone, α-napthoflavone], for which, in the series with CD34+ cells, the EC50 is 177 nM and the “concentration showing toxic effect” value is ≥ 1 µM.

In the case of `C[C@@H](N)[C@H]1CC[C@H](C(=O)Nc2ccncc2)CC1` [Y-27632], in series [1] (setting [3]), the EC50 was 140 nM.

On to `CC(C)n1cnc2c(NCCc3ccc(O)cc3)nc(-c3csc4ccccc34)nc21` [SR1], for which the EC50 in the series with CD34+ cells is 47.4 nM.

In the case of `CCCCS(=O)(=O)N[C@@H](Cc1ccc(OCCCCC2CCNCC2)cc1)C(=O)O` [Tirofiban], on αIIbβ3, the “inhibition of agonist-induced PAC-1 binding” value is given as “inhibits as expected”.

Turning to `c1nc2nc(Nc3ccc(N4CCOCC4)cc3)nc(NC3CCCCC3)c2[nH]1` [reversine], the EC50 in series [1] (setting [3]) was found to be 500 nM. For the same compound, the half-maximal inhibitory concentration (IC50) in series [1] (Homo sapiens, read-out: MK cell number in 2 N IC50) came out at 260 nM; in series [1] (Homo sapiens, read-out: MK cell number in 4 N IC50), 500 nM.

In the case of collagen, the “polyploid MK numbers on stiff gels, IC50 in collagen concentration” value in the series with CD34+-derived MKs (blebbistatin-treated cells) is ~0.3 ng/cm^2. Further, the “polyploid MK numbers on stiff gels, EC50 in collagen concentration” value with CD34+-derived MKs (untreated cells) is on record as ~200 ng/cm^2.

In the case of “EGF: epidermal growth factor, human recombinant cytokine (NSDSECPLSHDGYCLHDGVCMYIEALDKYACNCVVGYIGERCQYRDLKWWELR; UniProt P01133 971-1023, looked up)”, the “effect on pS1943 level” value in the series with NMM-IIA pS1943 is recorded as “does not show a significant effect”.
